# Laboratory results taken from patent publication US20240245682A1, “ALPHA-V-BETA-8 INTEGRIN INHIBITORS AND USES THEREOF” (Pliant Therapeutics, Inc., priority 2022, published 2024).
# Columns and labels:
# Test in all cases: AlphaScreen proximity-based integrin binding assay with TGF-b1 LAP
# Conditions in all cases: values given as ranges
# [1] = biological target: human integrin αVβ6 (Homo sapiens, UniProt P06756+P18564)
# Method in brief: (§1)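 Purified human integrin incubated with compound, TGF-b1 LAP, biotinylated anti-LAP antibody and acceptor beads for 2 h, then streptavidin donor beads 30 min, room temperature, in 50 mM Tris-HCl pH 7.5, 0.1% BSA, 1 mM CaCl2/MgCl2. AlphaScreen signal (680 nm excitation, 520-620 nm emission); IC50 by four-parameter fit.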
# [2] = biological target: human integrin αVβ1 (Homo sapiens, UniProt P05556+P06756)
# Sequence of human integrin αVβ1 (P06756 31-992 limits assumed): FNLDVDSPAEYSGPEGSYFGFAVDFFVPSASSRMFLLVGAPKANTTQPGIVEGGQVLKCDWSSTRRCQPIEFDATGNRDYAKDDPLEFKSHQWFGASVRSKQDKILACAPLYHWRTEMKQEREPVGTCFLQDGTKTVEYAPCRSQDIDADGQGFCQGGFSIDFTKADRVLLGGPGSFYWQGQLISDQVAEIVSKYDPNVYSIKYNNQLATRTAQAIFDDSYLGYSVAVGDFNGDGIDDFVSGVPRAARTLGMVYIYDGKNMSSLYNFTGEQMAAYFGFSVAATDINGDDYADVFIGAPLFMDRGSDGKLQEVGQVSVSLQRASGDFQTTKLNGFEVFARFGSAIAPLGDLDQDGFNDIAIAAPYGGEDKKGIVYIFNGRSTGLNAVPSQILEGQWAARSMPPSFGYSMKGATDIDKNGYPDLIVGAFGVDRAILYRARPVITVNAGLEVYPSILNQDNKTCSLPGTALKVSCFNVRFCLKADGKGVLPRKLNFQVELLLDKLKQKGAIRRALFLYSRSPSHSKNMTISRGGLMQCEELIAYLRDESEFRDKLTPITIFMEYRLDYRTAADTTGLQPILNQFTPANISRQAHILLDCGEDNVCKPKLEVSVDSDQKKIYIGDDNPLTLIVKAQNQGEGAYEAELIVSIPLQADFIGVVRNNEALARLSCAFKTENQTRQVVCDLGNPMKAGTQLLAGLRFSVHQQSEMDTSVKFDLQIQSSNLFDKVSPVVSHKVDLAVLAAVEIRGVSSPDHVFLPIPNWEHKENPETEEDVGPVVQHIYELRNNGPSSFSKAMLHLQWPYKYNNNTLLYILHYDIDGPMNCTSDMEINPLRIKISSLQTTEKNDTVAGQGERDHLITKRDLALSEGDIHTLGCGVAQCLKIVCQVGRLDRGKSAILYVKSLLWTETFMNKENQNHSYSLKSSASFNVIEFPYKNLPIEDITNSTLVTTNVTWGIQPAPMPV
# Sequence of human integrin αVβ1 (P05556 21-728 limits assumed): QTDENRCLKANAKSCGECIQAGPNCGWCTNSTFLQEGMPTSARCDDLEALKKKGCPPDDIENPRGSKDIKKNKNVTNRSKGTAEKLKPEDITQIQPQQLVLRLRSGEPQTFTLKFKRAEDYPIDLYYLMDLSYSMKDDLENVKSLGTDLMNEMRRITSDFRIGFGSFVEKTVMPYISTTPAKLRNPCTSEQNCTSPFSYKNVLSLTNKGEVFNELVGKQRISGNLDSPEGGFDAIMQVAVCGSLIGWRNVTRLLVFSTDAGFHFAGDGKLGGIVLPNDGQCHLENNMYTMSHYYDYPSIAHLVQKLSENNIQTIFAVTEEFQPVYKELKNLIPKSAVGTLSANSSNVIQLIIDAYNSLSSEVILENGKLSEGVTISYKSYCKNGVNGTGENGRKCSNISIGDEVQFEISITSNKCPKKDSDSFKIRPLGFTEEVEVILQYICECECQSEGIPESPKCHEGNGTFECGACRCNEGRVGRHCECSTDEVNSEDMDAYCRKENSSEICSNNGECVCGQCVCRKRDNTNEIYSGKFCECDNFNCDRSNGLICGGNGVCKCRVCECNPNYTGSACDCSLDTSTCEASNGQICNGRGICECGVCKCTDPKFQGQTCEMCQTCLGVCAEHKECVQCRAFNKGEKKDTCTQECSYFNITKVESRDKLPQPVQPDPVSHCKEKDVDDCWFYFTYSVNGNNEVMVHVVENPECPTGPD
# Method in brief: as §1
# [3] = biological target: human integrin αVβ8 (Homo sapiens, UniProt P06756+P26012)
# Sequence of human integrin αVβ8 (P06756 31-992 limits assumed): as the sequence (P06756 31-992 limits assumed) above
# Sequence of human integrin αVβ8 (P26012 43-684 limits assumed): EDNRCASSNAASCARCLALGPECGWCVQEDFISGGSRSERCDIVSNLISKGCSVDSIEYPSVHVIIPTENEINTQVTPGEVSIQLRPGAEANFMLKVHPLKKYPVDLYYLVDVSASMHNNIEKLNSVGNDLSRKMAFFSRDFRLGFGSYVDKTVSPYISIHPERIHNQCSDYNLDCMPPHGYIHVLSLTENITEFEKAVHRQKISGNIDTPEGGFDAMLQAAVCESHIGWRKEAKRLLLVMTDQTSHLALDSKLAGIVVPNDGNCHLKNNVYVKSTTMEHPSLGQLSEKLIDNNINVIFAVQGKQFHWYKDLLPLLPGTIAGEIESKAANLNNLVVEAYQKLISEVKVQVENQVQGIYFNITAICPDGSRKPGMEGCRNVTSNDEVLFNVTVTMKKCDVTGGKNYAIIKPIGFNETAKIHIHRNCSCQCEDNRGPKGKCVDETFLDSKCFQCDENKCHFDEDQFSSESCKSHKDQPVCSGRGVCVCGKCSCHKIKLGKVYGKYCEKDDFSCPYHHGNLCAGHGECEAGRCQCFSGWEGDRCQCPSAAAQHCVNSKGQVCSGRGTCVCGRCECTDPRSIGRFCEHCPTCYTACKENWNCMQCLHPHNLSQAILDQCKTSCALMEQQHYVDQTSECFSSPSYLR
# Method in brief: as §1
# Sequence of human integrin αVβ6 (P06756 31-992 limits assumed): as the sequence (P06756 31-992 limits assumed) above
# Sequence of human integrin αVβ6 (P18564 22-707 limits assumed): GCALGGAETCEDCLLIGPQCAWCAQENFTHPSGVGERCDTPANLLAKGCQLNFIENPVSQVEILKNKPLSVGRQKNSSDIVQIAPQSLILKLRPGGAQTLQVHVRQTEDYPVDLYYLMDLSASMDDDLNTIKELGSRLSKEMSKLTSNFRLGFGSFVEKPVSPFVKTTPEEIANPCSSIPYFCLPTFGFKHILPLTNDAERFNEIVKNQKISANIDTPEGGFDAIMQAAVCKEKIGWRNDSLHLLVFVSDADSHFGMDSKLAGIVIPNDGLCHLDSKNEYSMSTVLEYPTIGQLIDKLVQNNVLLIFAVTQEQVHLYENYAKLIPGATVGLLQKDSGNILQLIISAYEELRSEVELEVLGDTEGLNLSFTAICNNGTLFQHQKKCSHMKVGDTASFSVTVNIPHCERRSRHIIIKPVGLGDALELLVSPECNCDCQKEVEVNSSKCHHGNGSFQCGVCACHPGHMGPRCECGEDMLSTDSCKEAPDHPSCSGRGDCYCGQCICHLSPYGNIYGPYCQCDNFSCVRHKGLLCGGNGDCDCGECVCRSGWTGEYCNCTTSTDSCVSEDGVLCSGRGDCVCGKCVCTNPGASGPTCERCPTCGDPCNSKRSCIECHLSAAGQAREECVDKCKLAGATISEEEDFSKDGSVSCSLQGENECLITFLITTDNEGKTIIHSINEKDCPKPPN
IC50 [1] [µM],IC50 [2] [µM],IC50 [3] [µM],Structure (SMILES)
≥ 0.5,< 0.05,0.15 to 0.25,"O=C(O)[C@H](CCOCCCCc1ccc2c(n1)NCCC2)NC(=O)C1(c2ncccc2C2CC2)CC1 [Compound 58, N-(1-(3-cyclopropylpyridin-2-yl)cyclopropane-1-carbonyl)-O-(4-(5,6,7,8-tetrahydro-1,8-naphthyridin-2-yl)butyl)-L-homoserine]"
> 0.5,0.05 to 0.15,0.25 to 0.5,"O=C(N[C@@H](CCOCCCCc1ccc2c(n1)NCCC2)C(=O)O)c1cnn(-c2ccccc2)c1 [Compound 98, N-(1-phenyl-1H-pyrazole-4-carbonyl)-O-(4-(5,6,7,8-tetrahydro-1,8-naphthyridin-2-yl)butyl)-L-homoserine]"
≥ 0.5,< 0.05,< 0.05,"O=C(O)[C@H](CCOCCCCc1ccc2c(n1)NCCC2)NC(=O)C1(c2cncnc2C(F)(F)F)CC1 [Compound 48, O-(4-(5,6,7,8-tetrahydro-1,8-naphthyridin-2-yl)butyl)-N-(1-(4-(trifluoromethyl)pyrimidin-5-yl)cyclopropane-1-carbonyl)-L-homoserine]"
≥ 0.5,< 0.05,0.05 to 0.15,"O=C(O)[C@H](CCOCCCCc1ccc2c(n1)NCCC2)NC(=O)C1(c2cccnc2C(F)F)CC1 [Compound 57, N-(1-(2-(difluoromethyl)pyridin-3-yl)cyclopropane-1-carbonyl)-O-(4-(5,6,7,8-tetrahydro-1,8-naphthyridin-2-yl)butyl)-L-homoserine]"
≥ 0.5,< 0.05,< 0.05,"O=C(O)[C@H](CCOCCCCc1ccc2c(n1)NCCC2)NC(=O)C1(n2c(Cl)cccc2=O)CC1 [Compound 65, N-(1-(6-chloro-2-oxopyridin-1(2H)-yl)cyclopropane-1-carbonyl)-O-(4-(5,6,7,8-tetrahydro-1,8-naphthyridin-2-yl)butyl)-L-homoserine]"
> 0.5,< 0.05,< 0.05,"O=C(O)[C@H](CCOCCCCc1ccc2c(n1)NCCC2)NC(=O)C1(n2c(F)cccc2=O)CC1 [Compound 93, N-(1-(6-fluoro-2-oxopyridin-1(2H)-yl)cyclopropane-1-carbonyl)-O-(4-(5,6,7,8-tetrahydro-1,8-naphthyridin-2-yl)butyl)-L-homoserine]"
≥ 0.5,< 0.05,< 0.05,"Cc1ncncc1C1(C(=O)N[C@@H](CCOCCCCc2ccc3c(n2)NCCC3)C(=O)O)CC1 [Compound 19, N-(1-(4-methylpyrimidin-5-yl)cyclopropane-1-carbonyl)-O-(4-(5,6,7,8-tetrahydro-1,8-naphthyridin-2-yl)butyl)-L-homoserine]"
≥ 0.5,< 0.05,< 0.05,"O=C(O)[C@H](CCOCCCCc1ccc2c(n1)NCCC2)NC(=O)C1(c2nccnc2C(F)(F)F)CC1 [Compound 67, O-(4-(5,6,7,8-tetrahydro-1,8-naphthyridin-2-yl)butyl)-N-(1-(3-(trifluoromethyl)pyrazin-2-yl)cyclopropane-1-carbonyl)-L-homoserine]"
≥ 0.5,< 0.05,< 0.05,"O=C(O)[C@H](CCOCCCCc1ccc2c(n1)NCCC2)NC(=O)C1(c2[nH]c(=O)ccc2Cl)CC1 [Compound 66, N-(1-(3-chloro-6-oxo-1,6-dihydropyridin-2-yl)cyclopropane-1-carbonyl)-O-(4-(5,6,7,8-tetrahydro-1,8-naphthyridin-2-yl)butyl)-L-homoserine]"
0.25 to 0.5,< 0.05,< 0.05,"COc1ccc(Cl)c(C2(C(=O)N[C@@H](CCOCCCCc3ccc4c(n3)NCCC4)C(=O)O)CC2)n1 [Compound 26, N-(1-(3-chloro-6-methoxypyridin-2-yl)cyclopropane-1-carbonyl)-O-(4-(5,6,7,8-tetrahydro-1,8-naphthyridin-2-yl)butyl)-L-homoserine]"
≥ 0.5,< 0.05,0.15 to 0.25,"N#Cc1cncc(C2(C(=O)N[C@@H](CCOCCCCc3ccc4c(n3)NCCC4)C(=O)O)CC2)c1 [Compound 27, N-(1-(5-cyanopyridin-3-yl)cyclopropane-1-carbonyl)-O-(4-(5,6,7,8-tetrahydro-1,8-naphthyridin-2-yl)butyl)-L-homoserine]"
≥ 0.5,< 0.05,0.05 to 0.15,"N#Cc1ccccc1C1(C(=O)N[C@@H](CCOCCCCc2ccc3c(n2)NCCC3)C(=O)O)CC1 [Compound 45, N-(1-(2-cyanophenyl)cyclopropane-1-carbonyl)-O-(4-(5,6,7,8-tetrahydro-1,8-naphthyridin-2-yl)butyl)-L-homoserine]"
≥ 0.5,< 0.05,< 0.05,"O=C(O)[C@H](CCOCCCCc1ccc2c(n1)NCCC2)NC(=O)C1(c2cncnc2C(F)F)CC1 [Compound 59, N-(1-(4-(difluoromethyl)pyrimidin-5-yl)cyclopropane-1-carbonyl)-O-(4-(5,6,7,8-tetrahydro-1,8-naphthyridin-2-yl)butyl)-L-homoserine]"
≥ 0.5,0.05 to 0.15,< 0.05,"COc1cccc(C#N)c1C1(C(=O)N[C@@H](CCOCCCCc2ccc3c(n2)NCCC3)C(=O)O)CC1 [Compound 56, N-(1-(2-cyano-6-methoxyphenyl)cyclopropane-1-carbonyl)-O-(4-(5,6,7,8-tetrahydro-1,8-naphthyridin-2-yl)butyl)-L-homoserine]"
0.25 to 0.5,< 0.05,< 0.05,"O=C(O)[C@H](CCOCCCCc1ccc2c(n1)NCCC2)NC(=O)C1(n2nc(Cl)cc2Cl)CC1 [Compound 69, N-(1-(3,5-dichloro-1H-pyrazol-1-yl)cyclopropane-1-carbonyl)-O-(4-(5,6,7,8-tetrahydro-1,8-naphthyridin-2-yl)butyl)-L-homoserine]"
0.25 to 0.5,< 0.05,0.05 to 0.15,"O=C(O)[C@H](CCOCCCCc1ccc2c(n1)NCCC2)NC(=O)C1(C(F)F)CCOC1 (stereo partly drawn) [Compound 83, N-(3-(difluoromethyl)tetrahydrofuran-3-carbonyl)-O-(4-(5,6,7,8-tetrahydro-1,8-naphthyridin-2-yl)butyl)-L-homoserine]"
< 0.05,< 0.05,0.05 to 0.15,"O=C(N[C@@H](CCOCCCCc1ccc2c(n1)NCCC2)C(=O)O)c1ccnn1-c1ccccc1 [Compound 99, N-(1-phenyl-1H-pyrazole-5-carbonyl)-O-(4-(5,6,7,8-tetrahydro-1,8-naphthyridin-2-yl)butyl)-L-homoserine]"
≥ 0.5,< 0.05,< 0.05,"Cn1cnc(Cl)c1C1(C(=O)N[C@@H](CCOCCCCc2ccc3c(n2)NCCC3)C(=O)O)CC1 [Compound 80, N-(1-(4-chloro-1-methyl-1H-imidazol-5-yl)cyclopropane-1-carbonyl)-O-(4-(5,6,7,8-tetrahydro-1,8-naphthyridin-2-yl)butyl)-L-homoserine]"
≥ 0.5,< 0.05,< 0.05,"O=C(O)[C@H](CCOCCCCc1ccc2c(n1)NCCC2)NC(=O)C1(c2ncccc2CF)CC1 [Compound 52, N-(1-(3-(fluoromethyl)pyridin-2-yl)cyclopropane-1-carbonyl)-O-(4-(5,6,7,8-tetrahydro-1,8-naphthyridin-2-yl)butyl)-L-homoserine]"
≥ 0.5,< 0.05,< 0.05,"Cc1cc(Cl)n(C2(C(=O)N[C@@H](CCOCCCCc3ccc4c(n3)NCCC4)C(=O)O)CC2)n1 [Compound 72, N-(1-(5-chloro-3-methyl-1H-pyrazol-1-yl)cyclopropane-1-carbonyl)-O-(4-(5,6,7,8-tetrahydro-1,8-naphthyridin-2-yl)butyl)-L-homoserine]"
0.25 to 0.5,< 0.05,< 0.05,"Cc1cncc(F)c1C1(C(=O)N[C@@H](CCOCCCCc2ccc3c(n2)NCCC3)C(=O)O)CC1 [Compound 47, N-(1-(3-fluoro-5-methylpyridin-4-yl)cyclopropane-1-carbonyl)-O-(4-(5,6,7,8-tetrahydro-1,8-naphthyridin-2-yl)butyl)-L-homoserine]"
≥ 0.5,< 0.05,< 0.05,"O=C(O)[C@H](CCOCCCCc1ccc2c(n1)NCCC2)NC(=O)C1(c2ncsc2Cl)CC1 [Compound 82, N-(1-(5-chlorothiazol-4-yl)cyclopropane-1-carbonyl)-O-(4-(5,6,7,8-tetrahydro-1,8-naphthyridin-2-yl)butyl)-L-homoserine]"
≥ 0.5,0.05 to 0.15,0.05 to 0.15,"COc1ncccc1C1(C(=O)N[C@@H](CCOCCCCc2ccc3c(n2)NCCC3)C(=O)O)CC1 [Compound 35, N-(1-(2-methoxypyridin-3-yl)cyclopropane-1-carbonyl)-O-(4-(5,6,7,8-tetrahydro-1,8-naphthyridin-2-yl)butyl)-L-homoserine]"
≥ 0.5,< 0.05,< 0.05,"O=C(O)[C@H](CCOCCCCc1ccc2c(n1)NCCC2)NC(=O)C1(c2c(Cl)cc[nH]c2=O)CC1 [Compound 68, N-(1-(4-chloro-2-oxo-1,2-dihydropyridin-3-yl)cyclopropane-1-carbonyl)-O-(4-(5,6,7,8-tetrahydro-1,8-naphthyridin-2-yl)butyl)-L-homoserine]"
≥ 0.5,0.05 to 0.15,< 0.05,"Cc1cccnc1C1(C(=O)N[C@@H](CCOCCCCc2ccc3c(n2)NCCC3)C(=O)O)CC1 [Compound 29, N-(1-(3-methylpyridin-2-yl)cyclopropane-1-carbonyl)-O-(4-(5,6,7,8-tetrahydro-1,8-naphthyridin-2-yl)butyl)-L-homoserine]"
> 0.5,< 0.05,< 0.05,"O=C(O)[C@H](CCOCCCCc1ccc2c(n1)NCCC2)NC(=O)C1(c2cccc(F)c2)CCOCC1 [Compound 88, N-(4-(3-fluorophenyl)tetrahydro-2H-pyran-4-carbonyl)-O-(4-(5,6,7,8-tetrahydro-1,8-naphthyridin-2-yl)butyl)-L-homoserine]"
